According to ChEMBL document CHEMBL4699600, “Design, Synthesis, and Biological Evaluation of Covalent Inhibitors of Focal Adhesion Kinase (FAK) against Human Malignant Glioblastoma” (J Med Chem, 2020):
pIC50, pKi: −log10 of the molar value. The source made the active and inactive calls. The calls are words filed in the database; no cut-off is given here.

Legend:
U-87 MG [1] = experiment: Cytotoxicity against human U-87 MG cells assessed as reduction in cell viability incubated for 48 hrs by MTT assay
A 172 = experiment: Cytotoxicity against human A172 cells assessed as reduction in cell viability incubated for 48 hrs by MTT assay; settings: A 172, 48 h
U-251 = experiment: Cytotoxicity against human U251 cells assessed as reduction in cell viability incubated for 48 hrs by MTT assay; settings: U-251, 48 h
U-87 MG [2] = experiment: Induction of apoptosis in human U87MG cells assessed as necrotic cells at 10 uM incubated for 48 hrs by Annexin-V/propidium iodide staining based flow cytometric method (reference value: […]); assay type: functional, U-87MG ATCC
U-87 MG [3] = experiment: Induction of apoptosis in human U87MG cells assessed as late apoptotic cells at 10 uM incubated for 48 hrs by Annexin-V/propidium iodide staining based flow cytometric method (reference value: […]); assay type: functional, U-87MG ATCC
U-87 MG [4] = experiment: Induction of apoptosis in human U87MG cells assessed as live cells at 10 uM incubated for 48 hrs by Annexin-V/propidium iodide staining based flow cytometric method (reference value: 94.2%); assay type: functional, U-87MG ATCC
U-87 MG [5] = experiment: Induction of apoptosis in human U87MG cells assessed as early apoptotic cells at 10 uM incubated for 48 hrs by Annexin-V/propidium iodide staining based flow cytometric method (reference value: 4.55 %); assay type: functional, U-87MG ATCC
U-87 MG [6] = experiment: Induction of cell cycle arrest in human U87MG cells assessed as multi-nucleated giant cells at 1 uM incubated for 48 hrs by TO-PRO-3 dye based immunocytochemistry analysis; assay type: functional; settings: U-87MG ATCC
U-87 MG [7] = experiment: Induction of cellular senescence in human U87MG cells assessed as flat and enlarged cells at 1 uM incubated for 48 hrs by TO-PRO-3 dye based immunocytochemistry analysis; assay type: functional, cell-based; settings: U-87MG ATCC
U-87 MG [8] = experiment: Induction of cell cycle arrest in human U87MG cells assessed as accumulation at G0/G1 phase at 1 uM incubated for 48 hrs by propidium iodide staining based flow cytometry analysis (reference value: 51.6 +/- […]); assay type: functional, U-87MG ATCC
U-87 MG [9] = experiment: Induction of cell cycle arrest in human U87MG cells assessed as accumulation at S phase at 1 uM incubated for 48 hrs by propidium iodide staining based flow cytometry analysis (reference value: 19.5 %); assay type: functional, U-87MG ATCC
U-87 MG [10] = experiment: Induction of cell cycle arrest in human U87MG cells assessed as accumulation in G2/M phase at 1 uM incubated for 48 hrs by propidium iodide staining based flow cytometry analysis (reference value: 28.9 +/- 2.1 %); assay type: functional, U-87MG ATCC; settings: dose microM 1-10
U-87 MG [11] = experiment: Induction of cell cycle arrest in human U87MG cells assessed as increase in accumulation at G2 phase at 1 uM incubated for 48 hrs by propidium iodide staining based flow cytometry analysis; assay type: functional; settings: U-87MG ATCC
U-87 MG [12] = experiment: Inhibition of cell migration in human U87MG cells assessed as reduction of cell mobility at 0.2 to 1 uM measured at 24 to 48 hrs by scratch wound assay; assay type: functional, cell-based; settings: U-87MG ATCC, dose microM 0.2-1, time hrs 24-48
U-87 MG [13] = experiment: Inhibition of cell adhesion in human U87MG cells assessed as increase in appearance of stress fiber at 1 uM incubated for 48 hrs by FITC-conjugated phalloidin and TO-PRO3 staining based microscopic analysis; assay type: functional; settings: U-87MG ATCC
Focal adhesion kinase 1 [14] = biological target: T1, Focal adhesion kinase 1 (Homo sapiens, UniProt Q05397); settings: U-87 MG, dose microM 0.6-3, time 48.0 hrs
Focal adhesion kinase 1 [15] = biological target: T1, Focal adhesion kinase 1; settings: U-87 MG, dose microM 0.1-5, time 48.0 hrs
Focal adhesion kinase 1 [16] = biological target: T1, Focal adhesion kinase 1; settings: U-87 MG, dose microM 0.1-10, time 48.0 hrs
Focal adhesion kinase 1 [17] = biological target: T1, Focal adhesion kinase 1; settings: U-87 MG, dose microM 0.1-10, time 48.0 hrs; remark: listed apart in the source
Focal adhesion kinase 1 [18] = biological target: T1, Focal adhesion kinase 1; settings: U-87 MG, dose microM 0.1-10, time 48.0 hrs; remark: listed apart in the source
[19] = biological target: Protein-tyrosine kinase 2-beta (Homo sapiens) (UniProt Q14289); experiment: Inhibition of recombinant human full length PYK2 at 100 nM in presence of [gamma32P]-ATP by radiometric analysis relative to control
Focal adhesion kinase 1 [20] = biological target: T1, Focal adhesion kinase 1; experiment: Inhibition of recombinant human N-terminal His-tagged FAK (393 to 698 residues) expressed in baculovirus infected Sf9 insect cells using Poly (4:1 Glu, Tyr) as substrate measured after 1 hr by ADP-glo luminescence assay
Target sequence in this assay (Q05397 whole entry): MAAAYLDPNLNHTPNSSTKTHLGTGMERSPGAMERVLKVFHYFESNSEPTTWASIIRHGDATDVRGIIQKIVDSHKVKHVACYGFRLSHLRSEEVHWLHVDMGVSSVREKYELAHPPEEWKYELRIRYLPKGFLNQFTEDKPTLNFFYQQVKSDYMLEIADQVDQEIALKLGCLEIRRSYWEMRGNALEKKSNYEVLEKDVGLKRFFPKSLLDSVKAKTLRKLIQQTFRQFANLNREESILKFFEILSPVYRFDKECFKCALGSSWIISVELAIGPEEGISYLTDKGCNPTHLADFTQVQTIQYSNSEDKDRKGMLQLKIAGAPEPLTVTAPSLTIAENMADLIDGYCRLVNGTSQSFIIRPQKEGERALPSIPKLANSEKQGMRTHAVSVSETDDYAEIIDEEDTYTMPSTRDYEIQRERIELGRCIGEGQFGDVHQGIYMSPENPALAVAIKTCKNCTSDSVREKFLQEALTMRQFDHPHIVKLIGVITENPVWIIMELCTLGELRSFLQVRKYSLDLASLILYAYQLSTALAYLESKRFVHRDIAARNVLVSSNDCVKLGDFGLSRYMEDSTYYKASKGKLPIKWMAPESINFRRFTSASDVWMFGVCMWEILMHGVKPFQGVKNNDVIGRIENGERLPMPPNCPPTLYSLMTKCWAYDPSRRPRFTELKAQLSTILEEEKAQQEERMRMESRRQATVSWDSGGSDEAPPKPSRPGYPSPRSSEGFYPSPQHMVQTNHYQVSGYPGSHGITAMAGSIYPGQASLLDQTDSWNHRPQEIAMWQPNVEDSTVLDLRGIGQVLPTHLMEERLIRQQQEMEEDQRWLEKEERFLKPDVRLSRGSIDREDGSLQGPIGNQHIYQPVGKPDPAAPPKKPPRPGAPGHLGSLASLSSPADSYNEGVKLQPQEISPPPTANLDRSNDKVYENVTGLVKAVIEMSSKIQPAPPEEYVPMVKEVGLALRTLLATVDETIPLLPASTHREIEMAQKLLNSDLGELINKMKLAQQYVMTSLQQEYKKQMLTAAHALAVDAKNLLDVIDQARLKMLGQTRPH

Focal adhesion kinase 1 [21] = biological target: T1, Focal adhesion kinase 1; experiment: Covalent inhibition of recombinant human N-terminal His-tagged FAK (393 to 698 residues) expressed in baculovirus infected Sf9 insect cells using Poly (4:1 Glu, Tyr) as substrate preincubated for 2 to 60 mins followed by substrate addition and measured after 1 hr by ADP-glo luminescence assay
Target sequence in this assay (Q05397 whole entry): as above

[22] = biological target: Proto-oncogene tyrosine-protein kinase Src (Homo sapiens) (UniProt P12931); experiment: Inhibition of human recombinant Src at 100 nM in presence of [gamma33P]ATP by radiometric assay relative to control
[23] = biological target: Fibroblast growth factor receptor 1 (Homo sapiens) (UniProt P11362); experiment: Inhibition of human recombinant FGFR1 (456 to 765 residues) at 100 nM in presence of [gamma33P]ATP by radiometric assay relative to control
[24] = biological target: Mast/stem cell growth factor receptor Kit (Homo sapiens) (UniProt P10721); experiment: Inhibition of human recombinant c-kit at 100 nM in presence of [gamma33P]ATP by radiometric assay relative to control
[25] = biological target: Epidermal growth factor receptor (Homo sapiens) (UniProt P00533); experiment: Inhibition of human recombinant EGFR at 100 nM in presence of [gamma33P]ATP by radiometric assay relative to control
[26] = biological target: Insulin-like growth factor 1 receptor (Homo sapiens) (UniProt P08069); experiment: Inhibition of human recombinant IGF1R at 100 nM by [gamma-33ATP] radiometric assay relative to control
[27] = biological target: Platelet-derived growth factor receptor alpha (Homo sapiens) (UniProt P16234); experiment: Inhibition of human recombinant PDGFRA at 100 nM by [gamma-33ATP] radiometric assay relative to control
[28] = biological target: Insulin receptor (Homo sapiens) (UniProt P06213); experiment: Inhibition of human recombinant IR at 100 nM by [gamma-33ATP] radiometric analysis relative to control
[29] = biological target: T2, Serine/threonine-protein kinase AKT (Homo sapiens) (UniProt P31751+Q9Y243+P31749); experiment: Inhibition of human Akt at 100 nM in presence of [33P]-ATP by radiometric analysis relative to control; assay type: protein assay
Homo sapiens = species on record: Homo sapiens; experiment: Inhibition of human recombinant Erk at 100 nM measured in presence of [33P]-ATP by radiometric analysis relative to control
Focal adhesion kinase 1 [30] = biological target: T1, Focal adhesion kinase 1; experiment: Inhibition of human recombinant FAK at 100 nM by [gamma32P]-ATP radiometric analysis relative to control
[31] = biological target: T2, Serine/threonine-protein kinase AKT (Homo sapiens); experiment: Activation of AKT in human U87MG cells at 0.1 to 10 uM incubated for 48 hrs by Western blot analysis; assay type: cell-based; settings: U-87 MG, dose microM 0.1-10, time 48.0 hrs
U-87 MG [32] = experiment: Activation of ERK in human U87MG cells at 0.1 to 10 uM incubated for 48 hrs by Western blot analysis; assay type: cell-based; settings: dose microM 0.1-10, time 48.0 hrs
Focal adhesion kinase 1 [33] = biological target: T1, Focal adhesion kinase 1; settings: U-87 MG, dose microM 0.1-5, time 48.0 hrs; remark: listed apart in the source

Sequence of Fibroblast growth factor receptor 1 (Homo sapiens) (P11362 22-822 limits assumed): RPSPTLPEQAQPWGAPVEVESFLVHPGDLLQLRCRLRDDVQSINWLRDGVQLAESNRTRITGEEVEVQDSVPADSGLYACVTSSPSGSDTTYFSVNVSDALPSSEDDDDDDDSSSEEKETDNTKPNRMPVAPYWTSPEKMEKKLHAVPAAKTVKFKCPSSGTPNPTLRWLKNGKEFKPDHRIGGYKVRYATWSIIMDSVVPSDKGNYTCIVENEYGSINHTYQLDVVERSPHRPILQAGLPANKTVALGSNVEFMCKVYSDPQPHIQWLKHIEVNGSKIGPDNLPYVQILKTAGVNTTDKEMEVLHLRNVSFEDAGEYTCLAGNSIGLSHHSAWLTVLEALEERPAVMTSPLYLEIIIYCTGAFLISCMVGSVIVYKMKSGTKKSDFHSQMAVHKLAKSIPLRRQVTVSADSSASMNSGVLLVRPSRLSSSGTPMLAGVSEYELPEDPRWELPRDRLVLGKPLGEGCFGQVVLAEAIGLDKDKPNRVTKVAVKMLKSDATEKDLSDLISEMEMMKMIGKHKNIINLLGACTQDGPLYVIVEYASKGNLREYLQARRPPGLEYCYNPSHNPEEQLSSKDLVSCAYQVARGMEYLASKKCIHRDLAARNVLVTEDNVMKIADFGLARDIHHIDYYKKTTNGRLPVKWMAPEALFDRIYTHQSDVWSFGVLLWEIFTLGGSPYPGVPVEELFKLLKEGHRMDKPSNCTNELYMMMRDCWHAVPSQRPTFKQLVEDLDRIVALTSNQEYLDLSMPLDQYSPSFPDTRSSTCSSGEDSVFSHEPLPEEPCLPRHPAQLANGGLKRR
T2 sequence (P31749 whole entry, looked up): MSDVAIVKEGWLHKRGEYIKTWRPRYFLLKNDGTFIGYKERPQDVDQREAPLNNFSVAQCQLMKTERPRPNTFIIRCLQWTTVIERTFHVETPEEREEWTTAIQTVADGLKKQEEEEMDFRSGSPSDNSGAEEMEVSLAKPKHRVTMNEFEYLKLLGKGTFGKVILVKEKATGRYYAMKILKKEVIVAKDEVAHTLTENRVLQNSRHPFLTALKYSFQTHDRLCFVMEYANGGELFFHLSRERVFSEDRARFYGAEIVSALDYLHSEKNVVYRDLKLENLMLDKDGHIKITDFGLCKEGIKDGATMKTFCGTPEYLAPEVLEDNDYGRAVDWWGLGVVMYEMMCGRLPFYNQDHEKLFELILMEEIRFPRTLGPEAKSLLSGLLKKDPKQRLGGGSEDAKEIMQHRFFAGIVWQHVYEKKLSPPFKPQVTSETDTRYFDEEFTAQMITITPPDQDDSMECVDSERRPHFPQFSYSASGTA
T2 sequence (P31751 whole entry, looked up): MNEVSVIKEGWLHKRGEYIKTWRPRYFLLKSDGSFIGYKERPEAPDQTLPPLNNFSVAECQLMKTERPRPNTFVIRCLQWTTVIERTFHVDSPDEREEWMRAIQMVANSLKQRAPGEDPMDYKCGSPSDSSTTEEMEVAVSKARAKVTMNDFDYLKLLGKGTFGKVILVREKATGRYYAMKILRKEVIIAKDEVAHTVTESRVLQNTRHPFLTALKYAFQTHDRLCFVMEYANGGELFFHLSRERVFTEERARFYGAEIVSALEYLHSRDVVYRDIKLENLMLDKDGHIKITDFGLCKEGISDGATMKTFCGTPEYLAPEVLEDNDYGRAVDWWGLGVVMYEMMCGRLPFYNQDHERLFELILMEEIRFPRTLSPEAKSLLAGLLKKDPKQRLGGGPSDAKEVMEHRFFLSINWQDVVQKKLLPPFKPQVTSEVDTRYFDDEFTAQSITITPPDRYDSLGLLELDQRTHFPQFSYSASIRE
T2 sequence (Q9Y243 whole entry, looked up): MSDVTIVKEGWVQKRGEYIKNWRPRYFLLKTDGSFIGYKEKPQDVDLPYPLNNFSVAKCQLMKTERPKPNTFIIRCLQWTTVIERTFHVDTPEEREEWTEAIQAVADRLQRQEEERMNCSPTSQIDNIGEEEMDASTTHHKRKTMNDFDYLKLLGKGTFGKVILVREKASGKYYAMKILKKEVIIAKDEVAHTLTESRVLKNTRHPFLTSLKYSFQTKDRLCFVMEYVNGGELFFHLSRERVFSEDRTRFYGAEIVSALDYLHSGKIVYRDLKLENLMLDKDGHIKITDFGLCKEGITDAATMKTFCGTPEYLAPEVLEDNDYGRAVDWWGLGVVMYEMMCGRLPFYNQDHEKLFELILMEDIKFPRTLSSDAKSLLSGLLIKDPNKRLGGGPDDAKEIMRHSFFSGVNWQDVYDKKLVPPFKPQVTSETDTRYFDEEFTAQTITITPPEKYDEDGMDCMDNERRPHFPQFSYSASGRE
Sequence of Mast/stem cell growth factor receptor Kit (Homo sapiens) (P10721 whole entry): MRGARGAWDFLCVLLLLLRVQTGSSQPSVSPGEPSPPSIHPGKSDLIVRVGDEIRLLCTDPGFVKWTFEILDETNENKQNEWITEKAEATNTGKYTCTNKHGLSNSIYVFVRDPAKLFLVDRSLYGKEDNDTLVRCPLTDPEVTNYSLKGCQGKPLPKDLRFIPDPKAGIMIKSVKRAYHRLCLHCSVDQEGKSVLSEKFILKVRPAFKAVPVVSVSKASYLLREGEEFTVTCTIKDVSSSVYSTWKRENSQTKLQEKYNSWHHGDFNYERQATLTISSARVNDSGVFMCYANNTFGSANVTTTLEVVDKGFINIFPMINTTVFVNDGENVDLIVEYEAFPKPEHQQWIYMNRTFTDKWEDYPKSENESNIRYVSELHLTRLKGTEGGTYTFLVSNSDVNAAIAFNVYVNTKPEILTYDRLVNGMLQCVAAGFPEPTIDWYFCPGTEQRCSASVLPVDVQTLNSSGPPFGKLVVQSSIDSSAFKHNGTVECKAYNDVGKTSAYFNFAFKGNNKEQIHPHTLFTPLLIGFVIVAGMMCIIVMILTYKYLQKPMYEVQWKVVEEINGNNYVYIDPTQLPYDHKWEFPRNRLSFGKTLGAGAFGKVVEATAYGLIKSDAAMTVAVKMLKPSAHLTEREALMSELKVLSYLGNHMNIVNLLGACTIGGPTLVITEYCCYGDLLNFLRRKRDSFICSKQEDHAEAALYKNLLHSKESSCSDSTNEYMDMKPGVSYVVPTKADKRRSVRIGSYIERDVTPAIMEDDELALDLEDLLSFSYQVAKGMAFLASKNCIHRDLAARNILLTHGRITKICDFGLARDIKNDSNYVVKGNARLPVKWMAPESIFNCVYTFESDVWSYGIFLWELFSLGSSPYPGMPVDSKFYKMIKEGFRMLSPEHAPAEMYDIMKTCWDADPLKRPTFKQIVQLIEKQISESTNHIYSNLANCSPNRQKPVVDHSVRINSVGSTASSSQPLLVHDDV
Sequence of Proto-oncogene tyrosine-protein kinase Src (Homo sapiens) (P12931 2-536 limits assumed): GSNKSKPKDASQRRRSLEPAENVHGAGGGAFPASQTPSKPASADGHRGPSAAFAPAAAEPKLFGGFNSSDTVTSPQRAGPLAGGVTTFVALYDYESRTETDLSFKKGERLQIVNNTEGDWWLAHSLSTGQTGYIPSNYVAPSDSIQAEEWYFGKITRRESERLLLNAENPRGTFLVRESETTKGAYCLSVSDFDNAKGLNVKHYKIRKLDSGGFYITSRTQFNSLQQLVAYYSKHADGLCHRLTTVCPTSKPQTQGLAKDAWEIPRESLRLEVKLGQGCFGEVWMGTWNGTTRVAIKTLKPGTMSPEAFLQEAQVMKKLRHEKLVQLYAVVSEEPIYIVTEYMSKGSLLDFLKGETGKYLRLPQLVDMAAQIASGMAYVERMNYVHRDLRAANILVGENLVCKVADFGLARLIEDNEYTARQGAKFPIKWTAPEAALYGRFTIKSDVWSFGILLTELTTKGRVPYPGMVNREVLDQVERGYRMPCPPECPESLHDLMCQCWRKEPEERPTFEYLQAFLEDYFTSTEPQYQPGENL

Row | SMILES | pIC50 (U-87 MG [1]) | pIC50 (A 172) | pIC50 (U-251) | Activity (U-87 MG [2]) | Activity (U-87 MG [3]) | Activity (U-87 MG [4]) | Activity (U-87 MG [5]) | Activity (U-87 MG [6]) | Activity (U-87 MG [7]) | Activity (U-87 MG [8]) | Activity (U-87 MG [9]) | Activity (U-87 MG [10]) | Activity (U-87 MG [11]) | inhibition (U-87 MG [12]) | inhibition (U-87 MG [13]) | inhibition (Focal adhesion kinase 1 [14]) | inhibition [19] | pIC50 (Focal adhesion kinase 1 [20]) | inhibition [22] | inhibition [23] | other results
1 | CNC(=O)c1ccccc1Nc1nc(Nc2ccc(N3CCOCC3)cc2OC)ncc1Cl | 5.54 | 5.08 | 5.20 | 2.2% | 2.45% | 88.1% | 7.24% | Active | Active | 16.2% | 19.5% | 66.1% | Active | Active | Active | Dose-dependent effect | – | – | – | – | inhibition (Focal adhesion kinase 1 [15]): Active; inhibition (Focal adhesion kinase 1 [16]): Dose-dependent effect; inhibition (Focal adhesion kinase 1 [17]): Dose-dependent effect; inhibition (Focal adhesion kinase 1 [18]): Dose-dependent effect
2 | C=CC(=O)NCCNc1c(NCc2ccc(Nc3ncc(Cl)c(Nc4ccccc4C(=O)NC)n3)cc2)c(=O)c1=O | 5.66 | 6.19 | 6.66 | 0.67% | 2.45% | 90.8% | 6.05% | Active | Active | 9.2% | 10% | 80.8% | Active | Active | Active | Dose-dependent effect | 97.6% | 9.22 | 52.1% | 87.1% | pKi (Focal adhesion kinase 1 [21]): 9.64; inhibition [24]: 0.2%; inhibition [25]: 47.2%; inhibition [26]: 91.5%; inhibition [27]: 91%; inhibition [28]: 57.6%; inhibition [29]: 3.7%; inhibition (Homo sapiens): 14.2%; inhibition (Focal adhesion kinase 1 [30]): 98.1%; Activity [31]: inactive; Activity (U-87 MG [32]): inactive; inhibition (Focal adhesion kinase 1 [33]): Dose-dependent effect; inhibition (Focal adhesion kinase 1 [15]): inactive; inhibition (Focal adhesion kinase 1 [16]): Dose-dependent effect; inhibition (Focal adhesion kinase 1 [17]): Dose-dependent effect; inhibition (Focal adhesion kinase 1 [18]): Dose-dependent effect
3 | C=CC(=O)NCCNc1c(NCc2ccc(Nc3ncc(Cl)c(NCc4cccnc4N(C)S(C)(=O)=O)n3)cc2)c(=O)c1=O | – | – | – | – | – | – | – | – | – | – | – | – | – | – | – | – | 68.3% | 8.26 | 17.9% | 32.5% | inhibition [24]: 0%; inhibition [25]: 1.2%; inhibition [26]: 28.1%; inhibition [27]: 12.5%; inhibition [28]: 15.1%; inhibition [29]: 2.5%; inhibition (Homo sapiens): 4.1%; inhibition (Focal adhesion kinase 1 [30]): 92.2%
4 | CNC(=O)c1ccccc1Nc1nc(Nc2ccc(CNc3c(NCCNC(=O)/C(C#N)=C/C4CC4)c(=O)c3=O)cc2)ncc1Cl | 5.14 | 6.05 | 5.92 | 1.39% | 4.06% | 87.3% | 7.3% | Active | Active | 8.1% | 8.8% | 83.1% | Active | Active | Active | – | – | – | – | – | –
5 | CNC(=O)c1ccccc1Nc1nc(Nc2ccc(CNc3c(NCCNC(=O)/C(C#N)=C/C(C)C)c(=O)c3=O)cc2)ncc1Cl | 5.15 | 5.89 | 5.01 | 3.37% | 0.21% | 96.4% | 0% | Active | Active | 12.7% | 8.2% | 79.1% | Active | Active | Active | Dose-dependent effect | 97.5% | 8.92 | 31.1% | 83.5% | pKi (Focal adhesion kinase 1 [21]): 9.33; inhibition [24]: 0%; inhibition [25]: 25.1%; inhibition [26]: 71.9%; inhibition [27]: 67.5%; inhibition [28]: 32.4%; inhibition [29]: 19.9%; inhibition (Homo sapiens): 4.3%; inhibition (Focal adhesion kinase 1 [30]): 94.1%; Activity [31]: inactive; Activity (U-87 MG [32]): inactive; inhibition (Focal adhesion kinase 1 [33]): Dose-dependent effect; inhibition (Focal adhesion kinase 1 [15]): inactive; inhibition (Focal adhesion kinase 1 [16]): Dose-dependent effect; inhibition (Focal adhesion kinase 1 [17]): Dose-dependent effect; inhibition (Focal adhesion kinase 1 [18]): Dose-dependent effect
6 | C=CC(=O)NCCNc1c(NCc2ccc(Nc3ncc(C(F)(F)F)c(Nc4ccccc4C(=O)NC)n3)cc2)c(=O)c1=O | 5.48 | 6.89 | 6.82 | 1.1% | 3.85% | – | 5.6% | Active | Active | 13.7% | 11.2% | 75.1% | Active | Active | Active | Dose-dependent effect | 99.8% | 8.17 | 55.6% | 88.3% | pKi (Focal adhesion kinase 1 [21]): 8.58; inhibition [24]: 0.1%; inhibition [25]: 29%; inhibition [26]: 94.4%; inhibition [27]: 78.4%; inhibition [28]: 82.5%; inhibition [29]: 25.1%; inhibition (Homo sapiens): 21.8%; inhibition (Focal adhesion kinase 1 [30]): 98.6%
